Reference: ChEMBL document CHEMBL1147761, “Novel 1,3-dipropyl-8-(1-heteroarylmethyl-1H-pyrazol-4-yl)-xanthine derivatives as high affinity and selective A2B adenosine receptor antagonists” (Bioorg Med Chem Lett, 2006)

Assays:
[1] = biological target: Adenosine A2 receptor (Homo sapiens) (UniProt P29275+P29274); assay: Selectivity of adenosine A2A receptor over adenosine A2B receptor; format: protein assay
Adenosine receptor A1 = biological target: T1, Adenosine receptor A1 (Homo sapiens, UniProt P30542); assay: Displacement of [3H]CPX from Adenosine A1 receptor expressed in CHO cells; format: cell-based
T1 sequence (P30542 whole entry): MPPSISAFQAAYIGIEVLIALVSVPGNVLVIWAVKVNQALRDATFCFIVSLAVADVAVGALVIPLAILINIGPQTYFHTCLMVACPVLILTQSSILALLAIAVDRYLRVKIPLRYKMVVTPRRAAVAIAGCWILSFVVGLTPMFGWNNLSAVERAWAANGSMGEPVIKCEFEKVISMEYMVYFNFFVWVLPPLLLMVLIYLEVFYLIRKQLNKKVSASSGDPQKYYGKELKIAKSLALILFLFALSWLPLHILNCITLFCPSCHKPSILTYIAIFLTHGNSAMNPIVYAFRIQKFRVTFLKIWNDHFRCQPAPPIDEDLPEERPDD

[2] = Half life in rat administered at 1 mg/kg; format: ADME, organism-based; parameters: dose 1 mg/kg; conditions: in vivo
[3] = biological target: Adenosine receptors; A2b & A3 (Homo sapiens) (UniProt P29275+P0DMS8); assay: Selectivity of adenosine A3 receptor over adenosine A2B receptor; format: protein assay
[4] = Oral bioavailability in rat administered at 1 mg/kg; format: ADME, organism-based; conditions: in vivo
[5] = AUC in rat administered at 1 mg/kg; format: ADME, organism-based; parameters: dose 1 mg/kg; conditions: plasma
Adenosine receptor A2b = biological target: T2, Adenosine receptor A2b (Homo sapiens, UniProt P29275); assay: Displacement of [3H]ZM-241385 from Adenosine A2B receptor expressed in HEK cells; format: cell-based, HEK293
T2 sequence (P29275 whole entry): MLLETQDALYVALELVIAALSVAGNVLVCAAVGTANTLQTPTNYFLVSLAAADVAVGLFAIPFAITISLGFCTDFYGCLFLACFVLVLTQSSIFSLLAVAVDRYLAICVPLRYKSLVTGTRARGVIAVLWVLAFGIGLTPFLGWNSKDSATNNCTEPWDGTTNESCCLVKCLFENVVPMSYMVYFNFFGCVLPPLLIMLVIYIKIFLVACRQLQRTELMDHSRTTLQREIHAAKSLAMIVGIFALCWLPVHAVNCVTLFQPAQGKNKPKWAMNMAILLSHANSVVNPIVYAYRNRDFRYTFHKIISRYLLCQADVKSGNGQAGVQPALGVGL

Adenosine receptor A2a = Adenosine receptor A2a (Homo sapiens, UniProt P29274); assay: Displacement of [3H]ZM-241385 from Adenosine A2A receptor expressed in HEK cells; format: cell-based, HEK293
Adenosine receptor A2a, sequence (P29274 whole entry): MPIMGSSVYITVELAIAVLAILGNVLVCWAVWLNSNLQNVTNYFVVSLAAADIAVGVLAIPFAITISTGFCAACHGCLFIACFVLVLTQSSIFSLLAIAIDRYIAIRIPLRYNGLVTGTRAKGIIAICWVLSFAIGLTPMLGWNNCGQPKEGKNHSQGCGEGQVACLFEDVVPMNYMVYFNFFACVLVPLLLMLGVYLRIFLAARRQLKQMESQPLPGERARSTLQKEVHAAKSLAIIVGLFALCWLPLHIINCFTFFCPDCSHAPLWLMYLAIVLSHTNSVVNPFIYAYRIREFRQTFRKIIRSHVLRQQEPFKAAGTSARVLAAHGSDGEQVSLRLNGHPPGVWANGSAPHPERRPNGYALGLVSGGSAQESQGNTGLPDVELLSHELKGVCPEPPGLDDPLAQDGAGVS

Adenosine receptor A3 = biological target: T3, Adenosine receptor A3 (Homo sapiens, UniProt P0DMS8); assay: Displacement of [125I]AB-MECA from Adenosine A3 receptor expressed in CHO cells; format: cell-based
T3 sequence (P0DMS8 whole entry): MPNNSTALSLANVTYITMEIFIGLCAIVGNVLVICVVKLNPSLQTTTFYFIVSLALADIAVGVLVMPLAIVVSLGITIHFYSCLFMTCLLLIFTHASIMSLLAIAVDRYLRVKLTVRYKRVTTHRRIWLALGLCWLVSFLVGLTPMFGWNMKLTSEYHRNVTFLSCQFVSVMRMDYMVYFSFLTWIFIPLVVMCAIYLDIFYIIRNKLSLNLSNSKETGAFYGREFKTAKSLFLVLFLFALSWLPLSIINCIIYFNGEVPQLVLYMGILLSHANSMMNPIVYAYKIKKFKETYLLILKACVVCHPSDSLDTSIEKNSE

[6] = biological target: Adenosine receptors; A1 & A2b (Homo sapiens) (UniProt P30542+P29275); assay: Selectivity of adenosine A1 receptor over adenosine A2B receptor; format: protein assay

Adenosine A2 receptor (Homo sapiens), sequence (P29274 whole entry, looked up, one chain of several): as the sequence (P29274 whole entry) above

Row | SMILES | Ratio Ki [1] | Ki (Adenosine receptor A1) | half-life [2] | Ratio Ki [3] | bioavailability [4] | AUC [5] | Ki (Adenosine receptor A2b) | Ki (Adenosine receptor A2a) | Ki (Adenosine receptor A3) | Ratio Ki [6]
1 | CCCn1c(=O)c2nc(-c3cnn(Cc4nc(-c5ccc(Cl)cc5)no4)c3)[nH]c2n(CCC)c1=O | 85 | 0.74 µM | 1.5 h | 19 | 22% | 2.33 µg·h/mL | 0.021 µM | 1.8 µM | 0.4 µM | 35
2 | CCCn1c(=O)c2[nH]c(-c3cnn(Cc4noc(-c5ccccc5)n4)c3)nc2n(CCC)c1=O | 85 | 1 µM |  | 30 |  |  | 0.021 µM | 1.8 µM | 0.63 µM | 47
3 | CCCn1c(=O)c2nc(-c3cnn(Cc4nc(-c5ccc(OC)cc5)no4)c3)[nH]c2n(CCC)c1=O | > 47 | 3 µM |  | 14 |  |  | 0.106 µM | > 5 µM | 1.5 µM | 28
4 | CCCn1c(=O)c2nc(-c3cnn(Cc4nc(-c5ccccc5)no4)c3)[nH]c2n(CCC)c1=O | 1100 | 0.37 µM |  | 480 |  |  | 0.001 µM | 1.1 µM | 0.48 µM | 370
5 | CCCn1c(=O)c2nc(-c3cnn(Cc4cc(-c5cccc(OC)c5)on4)c3)[nH]c2n(CCC)c1=O | > 38 | 3.5 µM |  | > 38 |  |  | 0.131 µM | > 5 µM | > 5 µM | 27
6 | CCCn1c(=O)c2nc(-c3cnn(Cc4noc(-c5ccccc5OC)n4)c3)[nH]c2n(CCC)c1=O | 40 | 0.93 µM |  | > 100 |  |  | 0.083 µM | 3.4 µM | > 8.3 µM | 11
7 | CCCn1c(=O)c2nc(-c3cnn(Cc4cc(-c5ccccc5C(F)(F)F)on4)c3)[nH]c2n(CCC)c1=O | > 41 | 3.7 µM |  | 34 |  |  | 0.121 µM | > 5 µM | 4.2 µM | 30
8 | CCCn1c(=O)c2[nH]c(-c3cnn(Cc4cc(-c5ccccc5)on4)c3)nc2n(CCC)c1=O | 30 | 1.5 µM |  | 128 |  |  | 0.014 µM | 0.42 µM | 1.8 µM | 107
9 | CCCn1c(=O)c2nc(-c3cnn(Cc4noc(-c5ccc(OC)cc5)n4)c3)[nH]c2n(CCC)c1=O | > 40 | 3.9 µM |  | 19 |  |  | 0.123 µM | > 5 µM | 2.3 µM | 32
10 | CCCn1c(=O)c2nc(-c3cnn(Cc4noc(-c5cccc(Cl)c5)n4)c3)[nH]c2n(CCC)c1=O | > 37 | 3 µM |  | 22 |  |  | 0.134 µM | > 5 µM | 3 µM | 22
11 | CCCn1c(=O)c2nc(-c3cnn(Cc4nc(-c5ccccc5C(F)(F)F)no4)c3)[nH]c2n(CCC)c1=O | > 67 | 0.53 µM |  | 4 |  |  | 0.074 µM | > 5 µM | 0.34 µM | 7
